Results published in ChEMBL document CHEMBL1125524, “Adenosine A1 antagonists. 2. Structure-activity relationships on diuretic activities and protective effects against acute renal failure” (J Med Chem, 1992).

How the values were obtained:
[1] = system: Rattus norvegicus; assay: Serum creatinine concentration measured after intraperitoneal administration of 10 mg/kg of compound to rats(vehicle 4.21+/-0.21); type: functional
[2] = molecular target: T1, Adenosine receptor A1 (Cavia porcellus, UniProt P47745)
T1 sequence (P47745 whole entry): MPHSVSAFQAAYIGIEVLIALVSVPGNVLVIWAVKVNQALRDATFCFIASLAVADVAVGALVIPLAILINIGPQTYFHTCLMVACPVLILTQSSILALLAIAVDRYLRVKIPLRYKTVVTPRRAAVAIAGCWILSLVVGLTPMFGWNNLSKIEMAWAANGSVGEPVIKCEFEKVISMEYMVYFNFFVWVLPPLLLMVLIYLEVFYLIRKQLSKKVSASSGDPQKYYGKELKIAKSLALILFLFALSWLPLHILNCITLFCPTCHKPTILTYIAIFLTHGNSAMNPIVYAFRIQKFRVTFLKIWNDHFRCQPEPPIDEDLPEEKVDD
Description: Binding affinity against adenosine A1 receptor in guinea pig forebrain membranes using N6-[3H]cyclohexyladenosine as radioligand

[3] = system: Rattus norvegicus; assay: Serum creatinine concentration measured after intraperitoneal administration of 1 mg/kg of compound to rats(vehicle 3.75+/-0.34); type: functional
[4] = system: Rattus norvegicus; assay: Percent inhibition of Urea nitrogen by the compound given as ratio of UN value in treated to vehicle treated ones after intraperitoneal administration of 1 mg/kg of compound to rats(vehicle 137.4+/-16.5); type: functional; conditions: ip
[5] = molecular target: Adenosine A2 receptor (Rattus norvegicus, UniProt P29276+P30543)
[6] = system: Rattus norvegicus; assay: Percent inhibition of serum creatinine by the compound given as ratio of Cr value in treated to vehicle treated ones after intraperitoneal administration of 1 mg/kg of compound to rats(vehicle 3.75+/-0.34); type: functional; conditions: ip
[7] = system: Rattus norvegicus; assay: Ratio of sodium ion/potassium ion concentration in treated rats to that in control rats, at a peroral dose of 25 mg/Kg; type: functional
[8] = system: Rattus norvegicus; assay: Oral diuretic activity was measured after oral administration of 25 mg/kg to rats(control volume is 0.74+/-0.07); type: functional, Urine
[9] = system: Rattus norvegicus; assay: Percent inhibition of Urea nitrogen by the compound given as ratio of UN value in treated to vehicle treated ones after intraperitoneal administration of 10 mg/kg of compound to rats(vehicle 144.1+/-6.1); type: functional; conditions: ip
[10] = system: Rattus norvegicus; assay: Ratio of urinary excretion value (Na+ concentration) in treated rats to that in control rats, at a peroral dose of 25 mg/Kg; type: functional, Urine
[11] = system: Rattus norvegicus; assay: Ratio of urinary excretion value (urinary volume) in treated rats to that in control rats, at a peroral dose of 25 mg/Kg; type: functional, Urine
[12] = system: Rattus norvegicus; assay: Percent inhibition of serum creatinine by the compound given as ratio of Cr value in treated to vehicle treated ones after intraperitoneal administration of 10 mg/kg of compound to rats(vehicle 4.21+/-0.21); type: functional; conditions: ip
[13] = system: Rattus norvegicus; assay: Effect on urinary excretion potassium and sodium after oral administration of 25 mg/kg to rats(potassium and sodium excretion in control rat is 0.172+/-0.015); type: functional, Urine
[14] = system: Rattus norvegicus; assay: Urea nitrogen concentration measured after intraperitoneal administration of 10 mg/kg of compound to rats(vehicle 144.1+/-6.1); type: functional
[15] = system: Rattus norvegicus; assay: Urea nitrogen concentration measured after intraperitoneal administration of 1 mg/kg of compound to rats(vehicle 137.4+/-16.5); type: functional
[16] = system: Rattus norvegicus; assay: Serum creatinine concentration measured after intraperitoneal administration of 1 mg/kg of compound to rats(vehicle 5.07+/-0.33); type: functional; conditions: 1 mg/kg
[17] = system: Rattus norvegicus; assay: Ratio of urinary excretion value (urinary volume) in treated rats to that in control rats, at a peroral dose of 6.25 mg/Kg; type: functional, Urine
[18] = system: Rattus norvegicus; assay: Percent inhibition of Urea nitrogen by the compound given as ratio of UN value in treated to vehicle treated ones after intraperitoneal administration of 1 mg/kg of compound to rats(vehicle 195.8+/-14.4); type: functional; conditions: 1 mg/kg
[19] = system: Rattus norvegicus; assay: Ratio of urinary excretion value (Na+ concentration) in treated rats to that in control rats, at a peroral dose of 6.25 mg/Kg; type: functional, Urine
[20] = system: Rattus norvegicus; assay: Oral diuretic activity was measured after oral administration of 25 mg/kg to rats(control volume is 1.00+/-0.09); type: functional, Urine
[21] = system: Rattus norvegicus; assay: Urea nitrogen concentration measured after intraperitoneal administration of 1 mg/kg of compound to rats(vehicle 195.8+/-14.4); type: functional; conditions: 1 mg/kg
[22] = species: Rattus norvegicus; conditions: dose 1 mg/kg, route intraperitoneal
[23] = system: Rattus norvegicus; assay: Effect on urinary excretion potassium and sodium after oral administration of 25 mg/kg to rats(potassium and sodium excretion in control rat is 0.180+/-0.024); type: functional, Urine

Work on `CCCn1c(=O)c2c(nc(C3CCCC3)n2C)n(CCC)c1=O` yielded a Cr [1] of 3.07 mg/dL, a Ki [2] of 3.9 µM and a Cr [3] of 2.62 mg/dL. The inhibition in vivo at 1 mg/kg [4] was 27%, the Ki [5] was > 10 µM and the inhibition in vivo at 1 mg/kg [6] was 30%. The “Na+/K+” value [7] was 1, the Urine volume [8] was 1.07 ml 6hr-1 100g-1 and the inhibition in vivo at 10 mg/kg [9] was 25%. The T/C [10] was 1.07, the T/C [11] was 1.45 and the inhibition in vivo at 10 mg/kg [12] was 26%. The Na [13] was 0.184 m equiv 6hr-1 100g-1, the UN [14] was 107.9 mg/dL and the UN [15] was 99.9 mg/dL.
Compound `CCCn1c(=O)c2nc(C3CC4CCC3C4)[nH]c2n(CCC)c1=O` (stereo in doubt; 20) has a Cr [16] of 2.54 mg/dL, a T/C [17] of 1.12 and an Inhibition [18] of 49%. It also gave a Ki [5] of 0.29 µM, a T/C [19] of 1.27 and a Urine volume [20] of 2.13 ml 6hr-1 100g-1. For the same compound, the “Na+/K+” value [7] was 1.63, the UN [21] was 98.8 mg/dL and the T/C [10] was 2.06. It also gave a T/C [11] of 2.13, an Inhibition [22] of 50% and a Na [23] of 0.372 m equiv 6hr-1 100g-1.
